{"source": "patent US8067369B2", "about": "“Protection of the retina against laser injury by NAP and related peptides” (Ramot at Tel-Aviv University, priority 2006, dated 2011)", "key": {"[1]": {"system": "laser-induced retinal damage", "test": "Argon laser retinal lesions in rats, histopathologic and morphometric evaluation", "type": "in vivo, rat", "procedure": "Pigmented DA rats (strain DA/Ola/Hsd, Harlan OCAL Ltd., Blackthorn Bicester Oxon, England; raised in Tel-Aviv University animal house), 90 days old, were used for the experiments. The posterior segment of the eye of this strain has a uniform pigmentation, making it particularly useful for retinal laser injury production. The animals were fed ad libitum with a normal laboratory diet and maintained on a 12-h light/dark cycle. They were anesthetized by intraperitoneal injections of ketamine (40 mg/kg) and xylasine (8 mg/kg) before each experimental procedure.\nAfter dilatation of the pupil with sterile drops of Topicamid 0.5% (Midramid, Fisher), a contact lens, specially crafted to fit a rat eye for retinal laser irradiation, was attached to the cornea with 2.5% hydroxypropyl methylcellulose. Six laser retinal lesions were produced in each eye of each of the anesthetized (ketamine (40 mg/kg) and xylasine (8 mg/kg)) rats by argon laser (Novus 2000 Coherent, CA) two disc diameters away from the optic disc. The laser beam characteristics were 514 & […], 200 μm, 0.1 W, 0.05 second. These laser settings were found in previous studies to result in lesions of a uniform size and configuration, involving mainly the outer retinal layers.\nThe animals of the experimental groups I and III underwent systemic intravenous injection of NAP or saline immediately after the laser photocoagulation, NAP was injected in the amount of 60 μg per animal (about 280-300 μg/kg) in a volume of 0.5 ml of saline. The animals of the control group got an injection of 0.5 ml of saline. The injections were performed in the femoral vein of the right leg of each animal after the vessel was uncovered and isolated in situ. The wound was sewed up after the injection with surgical silk.\nThe animals of the experimental groups II and IV underwent NAP or saline injection immediately after the laser photocoagulation. Each eye of each anesthetized rat was punctured with a 30-gauge needle of a Hamilton syringe at the temporal posterior part of the retina. Then, 5 μl of NAP saline solution at a concentration of 2.5 pg/μl was injected into the vitreous body of the experimental group. The same amount of saline (5 μl) was injected intravitreally in the animals of the control groups. All of the procedures were controlled visually via a surgical microscope.\nThe effect of treatment in all groups was evaluated at three time points: 3, 20, and 60 days after the primary injury (n=6 at each time point in each group). The animals were euthanized by a lethal dose of pentobarbitone and their eyes enucleated and fixed in 2% glutaraldehyde. Using a surgical microscope, the posterior segment of the fixed eye was dissected into tissue samples, each incorporating one retinal laser lesion. The samples were embedded in epoxy resin and the blocks sectioned serially (1 μm) with an ultramicrotome and stained with toluidine blue.\nThe microscopic images were digitalized by SmartCapture VP software (Digital Scientific, USA) and enhanced by IPLab software (Scanalytics, USA). Then the images were segmented for photoreceptor clarification by IPLab software (Scanalytics, USA) and the photoreceptors were counted.\nMorphometric measurements were performed on each lesion in order to evaluate the severity of the argon laser injury. The borders of the lesion area were established at the most distant point from the middle of the lesion where the cytoarchitecture changes in the pigment epithelium, outer nuclear, inner nuclear, or ganglion cell layers of the retina could be distinguished. The measurements performed were: 1) Diameter of the whole lesion, 2) Cell count in the outer nuclear layer of the whole lesion area, and 3) Cell count in the outer nuclear layer at the 100 μm center of the lesion\nIn order to evaluate the extent of photoreceptor cell loss, results were compared to the cell density in the intact regions of the outer nuclear retinal layer located 100 μm peripherally from the edges of the lesion. […]"}, "fetal alcohol syndrome": {"system": "fetal alcohol syndrome", "conditions": "in vivo; cited from earlier work"}, "ischemic injury": {"system": "ischemic injury", "conditions": "after ischemic injury; cited from earlier work"}, "normal aging rats": {"system": "normal aging rats", "conditions": "intranasal administration; cited from earlier work"}, "[2]": {"system": "Alzheimer's disease pathology", "conditions": "in vivo; cited from earlier work"}, "[3]": {"system": "cells of the central nervous system (CNS)", "conditions": "cell cultures; cited from earlier work"}, "closed head injury": {"system": "closed head injury", "conditions": "mice; cited from earlier work"}, "[4]": {"conditions": "rabbit, in vivo", "procedure": "Three albino rabbits (each three months old) were used. One animal at a time was anesthetized using Ketamin (40 mg/kg) and Xylazine (8 mg/kg). After the animals were fully anesthetized, a drop of radioactive drug—^14C-NAPVSIPQ (SEQ ID NO:24) (50 microliter; 1.5×10^6 dpm; 37 mCi/mmol; 1 microCi=2×10^6 dpm) was applied once by a micropipette to each eye, i.e., eye drops. The eye drops were prepared to include 2.7 microliter of the ^14C-NAP stock in 400 microliter saline (0.9% NaCl). 10 microliters of this solution were counted to yield 3×10^5 dpm. After application of the drug, eye lids were held gently closed for 10 seconds.\nThe aqueous humor is the liquid that is found in-between the cornea and lens. Ten microliter samples of aqueous humor were taken from the rabbits' eyes using a tuberculin syringe with a 30 gauge needle.\nThe vitreous humor is found between the retina and the lens. Vitreous samples were obtained through the pars plana with a 25 gauge needle attached to a Tuberculin syringe. Ten microliter samples of vitreous humor were taken from each eye at designated times as outlined in the attached graphs up to 130 minutes after the initial eye drop application Systemic samples were taken from blood. For results see, e.g., FIGS. 4-6.\nThe animals were anesthetized for the duration of the […] to avoid animal suffering. A boost of anesthetics was injected about ninety minutes after the initiation of the experiment."}, "anxiety": {"system": "anxiety", "conditions": "long term nasal application; cited from earlier work"}, "[5]": {"system": "neurons of the central nervous system", "conditions": "in-vitro assays and in vivo disease models; cited from earlier work"}}, "note": "No end group written: not given here.", "data": [{"molecule": "CC[C@H](C)[C@H](NC(=O)[C@H](CO)NC(=O)[C@@H](NC(=O)[C@@H]1CCCN1C(=O)[C@H](C)NC(=O)[C@@H](N)CC(N)=O)C(C)C)C(=O)N1CCC[C@H]1C(=O)N[C@@H](CCC(N)=O)C(=O)O", "note": "[NAP, Asn-Ala-Pro-Val-Ser-Ile-Pro-Gln]", "values": [{"measurement": "neuroprotective effect against laser-induced retinal damage", "setting": "[1]; intravitreal NAP 5 μl of 2.5 pg/μl, 3 days after the laser session", "result": "significant neuroprotective effect"}, {"measurement": "neuroprotective effect against laser-induced retinal damage", "setting": "[1]; intravitreal NAP, 20 and 60 days after the laser session", "result": "not after 20 and 60 days"}, {"measurement": "mean lesion diameter", "setting": "[1]; intravitreal NAP, 3 days after the laser injury", "result": "reduced"}, {"measurement": "mean lesion diameter", "setting": "[1]; intravitreal NAP, after 20 days, vs control groups", "result": "greater than in control groups"}, {"measurement": "photoreceptor loss (morphological evaluation of the lesions)", "setting": "[1]; systemic intravenous NAP 60 μg per animal immediately after laser, 3 and 20 days after injury, vs saline control", "result": "attenuation"}, {"measurement": "lesion diameter (morphological evaluation of the lesions)", "setting": "[1]; systemic intravenous NAP 60 μg per animal, 3 and 20 days after injury, vs saline control", "result": "attenuation"}, {"measurement": "number of cells lost, whole and central areas of lesion", "setting": "[1]; systemic intravenous NAP, 3, 20 and 60 days after injury", "result": "reduced"}, {"measurement": "diameter of the lesion", "setting": "[1]; systemic intravenous NAP, 20 and 60 days after the injury", "result": "significant ameliorative effects (P<0.01)"}, {"measurement": "neuroprotective effect (photoreceptor loss and lesion diameter)", "setting": "[1]; systemic intravenous NAP, 60 days after the laser session", "result": "also manifested, although to a lesser extent"}, {"measurement": "significance of reduction in number of cells lost", "setting": "[1]; systemic intravenous NAP, sixty days after photocoagulation only", "result": "statistically significant (P<0.01)"}, {"measurement": "fetal demise", "setting": "fetal alcohol syndrome", "result": "reducing"}, {"measurement": "growth restrictions", "setting": "fetal alcohol syndrome", "result": "reducing"}, {"measurement": "infarct volume", "setting": "ischemic injury", "result": "reduced"}, {"measurement": "motor function deficits", "setting": "ischemic injury", "result": "reduced"}, {"measurement": "performance in the Morris water maze", "setting": "normal aging rats", "result": "improved performance"}, {"measurement": "effect in Alzheimer's disease pathology models", "setting": "[2]", "result": "protective"}, {"measurement": "concentration showing neuroprotective activity", "setting": "[3]", "result": "femtomolar concentrations"}, {"measurement": "damage caused by closed head injury", "setting": "closed head injury", "result": "reducing damage"}, {"measurement": "maximal incorporation into vitreous samples", "setting": "[4]", "result": 60, "unit": "dpm/10 microliters"}, {"measurement": "peak of radioactive incorporation into the aqueous humor", "setting": "[4]", "result": 150, "unit": "dpm/10 microliter"}, {"measurement": "radioactivity at the aqueous humor at the 10 minute point", "setting": "[4]", "result": "~60", "unit": "dpm/10 microliters"}, {"measurement": "systemic exposure (blood radioactivity)", "setting": "[4]", "result": "1-12 dpm"}, {"measurement": "time of maximal incorporation into vitreous samples", "setting": "[4]", "result": 10, "unit": "min"}, {"measurement": "time of peak radioactive incorporation into the aqueous humor", "setting": "[4]", "result": 50, "unit": "min"}, {"measurement": "time the aqueous humor peak was maintained", "setting": "[4]", "result": 70, "unit": "min"}, {"measurement": "anxiety", "setting": "anxiety", "result": "decreased anxiety"}]}, {"molecule": "SALLRSIPA", "values": [{"measurement": "survival of neurons in response to various insults", "setting": "[5]", "result": "keep neurons of the central nervous system alive"}]}]}
